Read-outs that look alike come from different tables or passages of the source.
Assays:
Format in all cases: cell-based
[1] = target: T1, Alpha 1A (Homo sapiens, UniProt P35348); assay: RSAT assay (Receptor Selection and Amplification Technology), Alpha 1A; details: value in parentheses, ratio of maximal effect of drug to maximal effect of standard full agonist
T1 sequence (P35348 1-466): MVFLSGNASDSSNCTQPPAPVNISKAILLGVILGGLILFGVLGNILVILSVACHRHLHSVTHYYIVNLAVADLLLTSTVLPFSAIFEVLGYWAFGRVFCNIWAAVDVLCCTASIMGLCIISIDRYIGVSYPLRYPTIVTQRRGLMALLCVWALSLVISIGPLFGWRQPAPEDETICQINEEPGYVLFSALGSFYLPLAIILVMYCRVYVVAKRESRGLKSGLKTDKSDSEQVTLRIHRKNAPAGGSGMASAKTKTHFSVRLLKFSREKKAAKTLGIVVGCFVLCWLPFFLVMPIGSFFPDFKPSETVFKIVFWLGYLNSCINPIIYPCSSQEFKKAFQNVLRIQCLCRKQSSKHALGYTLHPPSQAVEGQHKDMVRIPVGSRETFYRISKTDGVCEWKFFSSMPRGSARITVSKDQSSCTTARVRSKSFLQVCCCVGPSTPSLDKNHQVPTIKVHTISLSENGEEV
Method: (§1) The RSAT assay measures a receptor-mediated loss of contact inhibition that results in selective proliferation of receptor-containing cells in a mixed population of confluent cells. The increase in cell number is assessed with an appropriate transfected marker gene such as β-galactosidase, the activity of which can be easily measured in a 96-well format. Receptors that activate the G protein, Gq, elicit this response. Alpha 2 receptors, which normally couple to Gi, activate the RSAT response when coexpressed with a hybrid Gq protein that has a Gi receptor recognition domain, called Gq/i5.
(§2) NIH-3T3 cells are plated at a density of 2×10^6 cells in 15 cm dishes and maintained in Dulbecco's modified Eagle's medium supplemented with 10% calf serum. One day later, cells are cotransfected by calcium phosphate precipitation with mammalian expression plasmids encoding p-SV-β-galactosidase (5-10 μg), receptor (1-2 μg) and G protein (1-2 μg). 40 μg salmon sperm DNA may also be included in the transfection mixture. […] Cells are thawed and 100 μl added to 100 μL aliquots of various concentrations of drugs in triplicate in 96-well dishes. Incubations continue 72-96 hr at 37° C. After washing with phosphate-buffered saline, β-galactosidase enzyme activity is determined by adding 200 μL of the chromogenic substrate (consisting of 3.5 mM o-nitrophenyl-β-D-galactopyranoside and 0.5% nonidet P-40 in phosphate buffered saline), incubating overnight at 30° C. and measuring optical density at 420 nm. The absorbance is a measure of enzyme activity, which depends on cell number and reflects a receptor-mediated cell proliferation. The efficacy or intrinsic activity is calculated as a ratio of the maximal effect of the drug to the maximal effect of a standard full agonist for each receptor subtype. Brimonidine, the chemical structure of which is shown below, is used as the standard agonist for the alpha 2B and alpha 2C receptors. […] NA stands for “not active” at concentrations less than 3-10 micromolar.

[2] = target: T2, alpha 2B receptor (Homo sapiens, UniProt P18089); assay: RSAT assay (Receptor Selection and Amplification Technology), Alpha 2B; details: for Intrinsic Activity efficacy Alpha 2B: value in parentheses, ratio of maximal effect to that of brimonidine
T2 construct: expressed in transfected cells; host or cells: NIH-3T3
T2 sequence (P18089 1-450): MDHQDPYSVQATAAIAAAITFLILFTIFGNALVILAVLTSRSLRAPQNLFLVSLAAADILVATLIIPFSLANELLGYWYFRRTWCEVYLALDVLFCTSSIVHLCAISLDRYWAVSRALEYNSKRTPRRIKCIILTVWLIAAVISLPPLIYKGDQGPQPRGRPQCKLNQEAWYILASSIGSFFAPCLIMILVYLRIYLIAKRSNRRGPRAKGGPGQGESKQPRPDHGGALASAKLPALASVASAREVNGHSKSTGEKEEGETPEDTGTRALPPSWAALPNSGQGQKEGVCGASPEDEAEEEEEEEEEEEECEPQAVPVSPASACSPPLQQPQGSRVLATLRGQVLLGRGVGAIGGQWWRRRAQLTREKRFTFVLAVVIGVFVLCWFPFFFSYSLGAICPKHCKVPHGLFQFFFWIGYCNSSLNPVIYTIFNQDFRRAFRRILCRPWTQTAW
Method: as §1, §2

[3] = target: T3, alpha 2C receptor (Homo sapiens, UniProt P18825); assay: RSAT assay (Receptor Selection and Amplification Technology), Alpha 2C; details: for Intrinsic Activity efficacy Alpha 2C: value in parentheses, ratio of maximal effect to that of brimonidine
T3 construct: expressed in transfected cells; host or cells: NIH-3T3
T3 sequence (P18825 1-462): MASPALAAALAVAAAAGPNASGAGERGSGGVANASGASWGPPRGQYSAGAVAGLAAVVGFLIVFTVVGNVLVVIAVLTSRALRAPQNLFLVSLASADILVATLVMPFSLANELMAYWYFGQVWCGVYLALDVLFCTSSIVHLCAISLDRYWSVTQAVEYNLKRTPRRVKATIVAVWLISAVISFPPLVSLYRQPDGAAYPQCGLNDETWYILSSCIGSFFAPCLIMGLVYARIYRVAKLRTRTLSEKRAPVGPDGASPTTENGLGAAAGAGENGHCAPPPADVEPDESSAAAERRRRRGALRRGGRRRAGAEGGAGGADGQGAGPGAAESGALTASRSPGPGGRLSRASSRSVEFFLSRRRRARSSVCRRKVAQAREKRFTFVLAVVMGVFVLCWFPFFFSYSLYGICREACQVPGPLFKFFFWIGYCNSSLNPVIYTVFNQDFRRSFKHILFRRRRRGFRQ
Method: as §1, §2

[4] = RSAT, transfected NIH-3T3 cells with Gq/i5, NA = not active at concentrations less than 10 micromolar, read-out: potency nM (EC50) Alpha 2C
[5] = RSAT, transfected NIH-3T3 cells with Gq/i5, Table 1, read-out: potency nM (EC50) Alpha 2B

SMILES | Intrinsic Activity efficacy Alpha 1A [1] | EC50 [2] [nM] | Intrinsic Activity efficacy Alpha 2B ([2]; RSAT, Table 1) | EC50 [3, 4] [nM] | Intrinsic Activity efficacy Alpha 2C ([3]; RSAT) | EC50 [2, 5] [nM] | EC50 [3] [nM]
c1ccc(C(Cc2ccncc2)/N=C2/NCCO2)cc1 (stereo not drawn) [Compound 1, N-(Oxazolidin-2-ylidene)-1-phenyl-2-(pyridin-4-yl)ethanamine] | 1.20 | 8 | 1.09 | 132 | 0.67 | – | –
c1ccc(C(Cc2ccncc2)/N=C2/NCCS2)cc1 (stereo not drawn) [Compound 2, 1-Phenyl-2-(pyridin-4-yl)-N-(thiazolidin-2-ylidene)ethanamine] | 1.45 | – | 1.18 | 525 | 0.72 | 10 | –
Cc1cccc(C(Cc2ccncc2)/N=C2/NCCS2)c1C (stereo not drawn) [Compound 4, 1-(2,3-Dimethylphenyl)-2-(pyridin-4-yl)-N-(thiazolidin-2-ylidene)ethanamine] | 0.77 | – | 1.1 | 14 | 0.63 | 3.8 | –
Cc1cccc(C(Cc2ccncc2)/N=C2/NCCO2)c1C (stereo not drawn) [Compound 6, 1-(2,3-Dimethylphenyl)-N-(oxazolidin-2-ylidene)-2-(pyridin-4-yl)ethanamine] | 0.88 | – | 1.1 | 80 | 0.68 | 2.1 | –
COc1ccccc1C(Cc1cccnc1)/N=C1/NCCS1 (stereo not drawn) [Compound 11, 1-(2-Methoxyphenyl)-2-(pyridin-3-yl)-N-(thiazolidin-2-ylidene)ethanamine] | 1.6 | – | 0.78 | 17 | 0.86 | 17 | –
COc1ccccc1C(Cc1cccnc1)/N=C1/NCCO1 (stereo not drawn) [Compound 13, 1-(2-Methoxyphenyl)-N-(oxazolidin-2-ylidene)-2-(pyridin-3-yl)ethanamine] | 1.12 | – | 0.62 | 23 | 0.66 | 9 | –
c1ccc(C(Cc2cnccn2)/N=C2/NCCO2)cc1 (stereo not drawn) [Compound 14, N-(Oxazolidin-2-ylidene)-1-phenyl-2-(pyrazin-2-yl)ethanamine] | 1.19 | – | 1.0 | – | – | 132 | –
c1ccc(C(Cc2cnccn2)N=C2NCCN2)cc1 (stereo not drawn) [Compound 15, N-(Imidazolidin-2-ylidene)-1-phenyl-2-(pyrazin-2-yl)ethanamine] | 0.72 | – | 0.84 | – | – | 198 | –
c1ccc(C(Cc2cnccn2)/N=C2/NCCS2)cc1 (stereo not drawn) [Compound 16, 1-Phenyl-2-(pyrazin-2-yl)-N-(thiazolidin-2-ylidene)ethanamine] | 1.1 | – | 0.97 | 100 | 0.5 | 170 | –
Clc1cccc(C(Cc2ccncc2)/N=C2/NCCO2)c1Cl (stereo not drawn) [Compound 17, 1-(2,3-Dichlorophenyl)-N-(oxazolidin-2-ylidene)-2-(pyridin-4-yl)ethanamine] | 1.3 | – | 1.15 | 30 | 0.65 | 5 | –
Clc1cccc(C(Cc2ccncc2)/N=C2/NCCS2)c1Cl (stereo not drawn) [Compound 18, 1-(2,3-Dichlorophenyl)-2-(pyridin-4-yl)-N-(thiazolidin-2-ylidene)ethanamine] | 1.0 | – | 1.1 | 21 | 0.6 | 2 | –
Fc1cccc(C(Cc2ccncc2)/N=C2/NCCS2)c1 (stereo not drawn) [Compound 23, 1-(3-Fluorophenyl)-2-(pyridin-4-yl)-N-(thiazolidin-2-ylidene)ethanamine] | 1.36 | – | – | – | – | – | –
Fc1cccc(C(Cc2ccncc2)/N=C2/NCCO2)c1 (stereo not drawn) [Compound 24, 1-(3-Fluorophenyl)-N-(oxazolidin-2-ylidene)-2-(pyridin-4-yl)ethanamine] | 1.1 | – | 0.98 | 237 | 0.93 | 14.3 | –
Fc1cccc(C(Cc2ccncc2)N=C2NCCN2)c1 (stereo not drawn) [Compound 25, 1-(3-Fluorophenyl)-N-(imidazolidin-2-ylidene)-2-(pyridin-4-yl)ethanamine] | 0.97 | 25 | 0.68 | – | 1.03 | – | 16
c1ccc([C@@H](Cc2ccncc2)N=C2NCCN2)cc1 [Compound 29, R—N-(imidazolidin-2-ylidene)-1-phenyl-2-(pyridin-4-yl)ethanamine] | 0.60 | – | – | 96 | 0.60 | – | –
c1ccc([C@@H](Cc2ccncc2)/N=C2/NCCO2)cc1 [Compound 30, R—N-(oxazolidin-2-ylidene)-1-phenyl-2-(pyridin-4-yl)ethanamine] | 1.1 | 6 | 1.16 | – | 0.78 | – | 24
c1ccc([C@@H](Cc2ccncc2)/N=C2/NCCS2)cc1 [Compound 31, R-1-phenyl-2-(pyridin-4-yl)-N-(thiazolidin-2-ylidene)ethanamine] | 1.1 | – | 0.64 | 6.1 | 1.0 | 21 | –
Clc1cccc(C(Cc2ccncc2)N=C2NCCN2)c1Cl (stereo not drawn) [Compound 32, 1-(2,3-Dichlorophenyl)-N-(imidazolidin-2-ylidene)-2-(pyridin-4-yl)ethanamine] | 0.52 | – | 1.3 | – | – | 1 | –
